According to PubChem BioAssay (NCI):
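Growth conditions: 96-well plates. Treatment: test compound, 48 hours, 5 concentrations. Analysis: linear interpolation between bracketing concentrations; unreached endpoints set to highest concentration. Abbreviation: GI50, concentration required for 50% inhibition of growth. At the TGI there is no net growth.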

What was measured:
Assay in all cases: growth of human tumour cells (NCI), 48 h
[1] = tested on: 786-0 renal
[2] = tested on: A498 renal
[3] = tested on: A549 NSCLC
[4] = tested on: ACHN renal
[5] = tested on: BT-549 breast
[6] = tested on: CAKI-1 renal
[7] = tested on: CCRF-CEM leukemia
[8] = tested on: COLO 205 colon
[9] = tested on: DU-145 prostate
[10] = tested on: HCC-2998 colon
[11] = tested on: HCT-116 colon
[12] = tested on: HCT-15 colon
[13] = tested on: HL-60(TB) leukemia
[14] = tested on: HOP-62 NSCLC
[15] = tested on: HOP-92 NSCLC
[16] = tested on: HS 578T breast
[17] = tested on: HT29 colon
[18] = tested on: IGROV1 ovarian
[19] = tested on: K-562 leukemia
[20] = tested on: KM12 colon
[21] = tested on: LOX IMVI melanoma
[22] = tested on: M14 melanoma
[23] = tested on: MALME-3M melanoma
[24] = tested on: MCF7 breast
[25] = tested on: MDA-MB-231 breast
[26] = tested on: MDA-MB-435
[27] = tested on: MOLT-4 leukemia
[28] = tested on: NCI-H226 lung
[29] = tested on: NCI-H23 lung

**Q.** Which results are given for `Cn1cc(C2=C(c3cn(C)c4cc(C(=O)O)ccc34)C(=O)NC2=O)c2ccccc21`?
**A.** GI50 [1]: > 25 µM; TGI [1]: > 25 µM; GI50 [2]: > 12 µM; TGI [2]: > 25 µM; GI50 [3]: > 25 µM; TGI [3]: > 25 µM; GI50 [4]: > 25 µM; TGI [4]: > 25 µM; GI50 [5]: > 25 µM; TGI [5]: > 25 µM; GI50 [6]: > 17.2 µM; TGI [6]: > 25 µM; GI50 [7]: > 20.4 µM; TGI [7]: > 25 µM; GI50 [8]: > 25 µM; TGI [8]: > 25 µM; GI50 [9]: > 25 µM; TGI [9]: > 25 µM; GI50 [10]: > 25 µM; TGI [10]: > 25 µM; GI50 [11]: > 25 µM; TGI [11]: > 25 µM; GI50 [12]: > 25 µM; TGI [12]: > 25 µM; GI50 [13]: > 25 µM; TGI [13]: > 25 µM; GI50 [14]: > 25 µM; TGI [14]: > 25 µM; GI50 [15]: > 25 µM; TGI [15]: > 25 µM; GI50 [16]: 5.86 µM; TGI [16]: > 25 µM; GI50 [17]: > 25 µM; TGI [17]: > 25 µM; GI50 [18]: > 25 µM; TGI [18]: > 25 µM; GI50 [19]: > 25 µM; TGI [19]: > 25 µM; GI50 [20]: > 25 µM; TGI [20]: > 25 µM; GI50 [21]: > 13.9 µM; TGI [21]: > 25 µM; GI50 [22]: > 25 µM; TGI [22]: > 25 µM; GI50 [23]: > 25 µM; TGI [23]: > 25 µM; GI50 [24]: > 25 µM; TGI [24]: > 25 µM; GI50 [25]: > 25 µM; TGI [25]: > 25 µM; GI50 [26]: > 25 µM; TGI [26]: > 25 µM; GI50 [27]: > 25 µM; TGI [27]: > 25 µM; GI50 [28]: > 25 µM; TGI [28]: > 25 µM; GI50 [29]: > 25 µM
